Like-named read-outs stand apart in the source and are kept apart here.
How the values were obtained:
[1] = system: aumolertinib metabolism in human liver microsomes; assay: Inhibition of aumolertinib metabolism in human liver microsomes (IC50, Ki); type: in vitro ADME; details: human, human liver microsomes, probe aumolertinib 20 μM
Procedure: (§1) When screening for inhibitors, the amount of RLM in the system and the reaction time were optimized and set to 0.5 mg/mL and 30 min, respectively. The concentration of the inhibitor was set at 100 μM. […] The above mixture was pre-incubated at 37 °C for 5 min, and then 1 mM NADPH was added to initiate the reaction, and incubated for another 30 min. Afterwards, 400 μL of cold acetonitrile and 20 μL of diazepam (500 ng/mL) were added to the system to stop the reaction. After vortexing for 2 min, the mixture is centrifuged at 16,200 g for 10 min and the supernatant is subjected to analysis by UPLC-MS/MS for the detection of analytes.

[2] = system: human liver microsomes (HLM); assay: as above; type: in vitro ADME; details: HLM
Procedure: as §1

CYP3A4.1 = CYP3A4.1 (Homo sapiens, UniProt P08684)
[3] = system: aumolertinib metabolism in rat liver microsomes; assay: in vitro; details: probe aumolertinib 25 μM
Procedure: as §1

[4] = system: rat liver microsomes (RLM); assay: Inhibition of aumolertinib metabolism in rat liver microsomes (screen, IC50, Ki)
Procedure: as §1

[5] = rat, in vivo, po, 11 mg/kg
[6] = mouse, in vivo, po
[7] = parameters: method as in Zhou et al., 2021; Liu et al., 2022a; Liu et al., 2022b; details: ref Zhou et al., 2021, Liu et al., 2022a, 2022b; cited from earlier work
[8] = Pharmacokinetics in AAV8-CYP3A4*1 mice
[9] = aumolertinib 16.5 mg/kg oral alone (Aum)
[10] = carvedilol 7.5 mg/kg 0.5 h before aumolertinib 16.5 mg/kg oral (Car+Aum)

Chain of CYP3A4.1 (P08684 whole entry): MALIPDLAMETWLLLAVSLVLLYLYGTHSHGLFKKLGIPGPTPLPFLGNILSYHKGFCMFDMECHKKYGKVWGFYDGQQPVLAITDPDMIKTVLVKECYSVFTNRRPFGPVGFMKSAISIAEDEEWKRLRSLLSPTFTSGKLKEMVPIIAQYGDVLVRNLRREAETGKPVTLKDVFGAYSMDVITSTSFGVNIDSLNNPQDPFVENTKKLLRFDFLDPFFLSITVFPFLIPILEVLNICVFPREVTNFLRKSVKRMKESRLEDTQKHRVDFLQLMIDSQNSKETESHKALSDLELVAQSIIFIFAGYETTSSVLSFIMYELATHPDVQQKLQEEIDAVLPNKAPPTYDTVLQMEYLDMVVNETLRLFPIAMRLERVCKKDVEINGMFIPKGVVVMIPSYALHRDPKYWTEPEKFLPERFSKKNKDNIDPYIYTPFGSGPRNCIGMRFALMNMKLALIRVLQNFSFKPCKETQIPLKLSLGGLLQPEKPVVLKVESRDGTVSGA

Compound: COc1ccccc1OCCNCC(O)COc1cccc2[nH]c3ccccc3c12 (stereo not shown) [Carvedilol]
- IC50 at 30 min [1]: 12.7 ± 0.59 µM
- inhibition mechanism [2]: non-competitive and competitive mixed
- Ki ([2]; Lineweaver-Burk secondary plot): 8.81 µM
- αKi ([2]; Lineweaver-Burk secondary plot): 47.76 µM
- inhibition mechanism (CYP3A4.1): competitively inhibited
- IC50 at 30 min [3]: 27.3 ± 2.52 µM
- inhibition mechanism [4]: non-competitive and competitive mixed
- Ki ([4]; Lineweaver-Burk secondary plot): 16.7 µM
- αKi ([4]; Lineweaver-Burk secondary plot): 51.66 µM

Compound: C=CC(=O)Nc1cc(Nc2nccc(-c3cn(C4CC4)c4ccccc34)n2)c(OC)cc1N(C)CCNC [HAS-719]
- CLz/F [5]: 5750.5 ± 2617.5 mL/min/kg
- Vz/F [5]: 1,913.68 ± 1,058.91 L/kg
- t1/2z [5]: 3.69 ± 0.57 h
- AUC(0-t) [6]: 429.91 ± 178.00 ng·h/mL
- AUC(0-∞) [6]: 572.38 ± 354.11 ng·h/mL
- CLz/F [6]: 586.7 ± 249.8 mL/min/kg
- Cmax [6]: 23.01 ± 11.89 ng/mL
- Tmax [6]: 14.29 ± 13.44 h
- Vz/F [6]: 773.46±1,086.45 L/kg
- t1/2z [6]: 14.62 ± 18.23 h
- plasma exposure relative to the parent drug [7]: 40%
- AUC(0-t) [8, 9]: 905.88 ± 375.90 ng·h/mL
- AUC(0-∞) [8, 9]: 908.18 ± 374.69 ng·h/mL
- CLz/F [8, 9]: 335 ± 128 mL/min/kg
- Cmax [8, 9]: 47.06 ± 20.43 ng/mL
- Tmax [8, 9]: 10.71 ± 9.53 h
- Vz/F [8, 9]: 113.97 ± 104.36 L/kg
- t1/2z [8, 9]: 3.80 ± 2.94 h
- AUC(0-t) [8, 10]: 663.56 ± 198.24 ng·h/mL
- AUC(0-∞) [8, 10]: 669.24 ± 196.18 ng·h/mL
- CLz/F [8, 10]: 423.8 ± 103 mL/min/kg
- Cmax [8, 10]: 34.97 ± 15.02 ng/mL
- Tmax [8, 10]: 17.86 ± 10.53 h
- Vz/F [8, 10]: 203.88 ± 121.79 L/kg
- t1/2z [8, 10]: 5.34 ± 2.61 h

Compound: CCCc1nc2c(C)cc(-c3nc4ccccc4n3C)cc2n1Cc1ccc(-c2ccccc2C(=O)O)cc1 [Telmisartan]
- α [2]: 0.59
- α ([2]; listed as telmisartan): < 1
- IC50 at 30 min [3]: 12.8 ± 0.18 µM
- inhibition mechanism [4]: mixed (non-competitive and uncompetitive)
- α [4]: 0.54
- α ([4]; listed as telmisartan): < 1

Reference: PMC11157048 (Frontiers in Pharmacology, 2024)
